Assay results reported in PubChem BioAssay AID246 (DTP/NCI, 2004).
Values joined by “and” are separate entries in the source; they are usually repeats but may differ in a detail not shown here. Identical values can stand only once. Inconclusive results and toxic doses are left out. Numbered stars: 1 amine (or outer) side, 2 acyl side, 3 side chain; on linkers, the order of the positions; unused ones are H or OH. Bridge positions count the residues as written; N and C are the ends. Square brackets hold non-standard residues; d marks the D form. Peptide text beside a SMILES is read from it. I, II: the chains in the order shown. Actinocin(9to1) = Cc1c2oc3c(C)ccc(C(=O)[*:1])c3nc-2c(C(=O)[*:2])c(N)c1=O; aThr = C[C@H](O)[C@H](N)C(=O)O; NMeV = CN[C@H](C(=O)O)C(C)C; Sar = CNCC(=O)O

Test system: BDF1 mice, P1081 chloroleukemia ip, survival T/C
Test: NCI In Vivo Anticancer Drug Screen. Data for tumor model P1081 Chloroleukemia (intraperitoneal) in B6D2F1 (BDF1) mice
Details: endpoint: mean survival time, higher = longer survival
Procedure: The antitumor activity of compounds was measured in mice bearing transplantable tumors. Survival or tumor size were measured and the results are expressed as the measurement made in the treated group (T) divided by the measurement made in the vehicle treated control group (C). The tumor model used in this assay is P1081 Chloroleukemia (intraperitoneal) in B6D2F1 (BDF1) mice

[1] = dose: 12.5 mg/kg/injection, schedule: Q01DX Z (sc), vehicle: steriod suspending solution
[2] = dose: 25.0 mg/kg/injection, schedule: Q01DX Z (sc), vehicle: steriod suspending solution
[3] = dose: 50.0 mg/kg/injection, schedule: Q01DX Z (sc), vehicle: steriod suspending solution
[4] = dose: 100.0 mg/kg/injection, schedule: Q01DX Z (sc), vehicle: steriod suspending solution
[5] = dose: 37.5 mg/kg/injection, schedule: Q01DX Z (ip), vehicle: carboxymethylcellulose (CMC)
[6] = dose: 75.0 mg/kg/injection, schedule: Q01DX Z (ip), vehicle: carboxymethylcellulose (CMC)
[7] = dose: 150.0 mg/kg/injection, schedule: Q01DX Z (ip), vehicle: carboxymethylcellulose (CMC)
[8] = dose: 62.5 mg/kg/injection, schedule: Q01DX Z (ip), vehicle: carboxymethylcellulose (CMC)
[9] = dose: 125.0 mg/kg/injection, schedule: Q01DX Z (ip), vehicle: carboxymethylcellulose (CMC)
[10] = dose: 250.0 mg/kg/injection, schedule: Q01DX Z (ip), vehicle: carboxymethylcellulose (CMC)
[11] = dose: 500.0 mg/kg/injection, schedule: Q01DX Z (ip), vehicle: carboxymethylcellulose (CMC)
[12] = dose: 62.5 mg/kg/injection, schedule: Q01DX Z (sc), vehicle: steriod suspending solution
[13] = dose: 125.0 mg/kg/injection, schedule: Q01DX Z (sc), vehicle: steriod suspending solution
[14] = dose: 250.0 mg/kg/injection, schedule: Q01DX Z (sc), vehicle: steriod suspending solution
[15] = dose: 500.0 mg/kg/injection, schedule: Q01DX Z (sc), vehicle: steriod suspending solution
[16] = dose: 2000.0 mg/kg/injection, schedule: Q01DX Z (sc), vehicle: steriod suspending solution

CC(=O)[C@H]1CC[C@H]2[C@@H]3C[C@H](C)C4=CC(=O)CC[C@]4(C)[C@H]3C(=O)C[C@]12C
T/C (dose: 6.3 mg/kg/injection, schedule: Q01DX Z (sc), vehicle: steriod suspending solution): 121 % of control
T/C [1]: 110 % of control
T/C [2]: 110 % of control
T/C [3]: 101 % of control
T/C [4]: 98 % of control
T/C (dose: 200.0 mg/kg/injection, schedule: Q01DX Z (sc), vehicle: steriod suspending solution): 105 % of control and 94 % of control

COc1cc2c(c(OC)c1OC)-c1ccc(OC)c(=O)cc1[C@@H](NC(C)=O)CC2
T/C (dose: 0.08 mg/kg/injection, schedule: Q01DX Z (ip), vehicle: saline): 112 % of control
T/C (dose: 0.16 mg/kg/injection, schedule: Q01DX Z (ip), vehicle: saline): 114 % of control
T/C (dose: 0.6 mg/kg/injection, schedule: Q01DX Z (ip), vehicle: saline): 151 % of control
T/C (dose: 0.63 mg/kg/injection, schedule: Q01DX Z (ip), vehicle: saline): 177 % of control

CC(=O)OCC1OC(n2ncc(=O)[nH]c2=O)C(OC(C)=O)C1OC(C)=O (stereo unspecified)
T/C (dose: 118.0 mg/kg/injection, schedule: Q01DX Z (ip), vehicle: other): 100 % of control
T/C (dose: 235.0 mg/kg/injection, schedule: Q01DX Z (ip), vehicle: other): 93 % of control
T/C (dose: 468.75 mg/kg/injection, schedule: Q01DX Z (ip), vehicle: alkali diluted with saline): 115 % of control
T/C (dose: 469.0 mg/kg/injection, schedule: Q01DX Z (ip), vehicle: other): 91 % of control
T/C (dose: 1875.0 mg/kg/injection, schedule: Q01DX Z (ip), vehicle: alkali diluted with saline): 121 % of control
T/C (dose: 3750.0 mg/kg/injection, schedule: Q01DX Z (ip), vehicle: alkali diluted with saline): 111 % of control

O=C1CCC(N2C(=O)c3ccccc3C2=O)C(=O)N1 (stereo unspecified)
T/C (dose: 18.75 mg/kg/injection, schedule: Q01DX Z (ip), vehicle: carboxymethylcellulose (CMC)): 89 % of control
T/C [5]: 98 % of control
T/C [6]: 94 % of control
T/C [7]: 94 % of control

CC[C@]1(O)C[C@H]2CN(CCc3c([nH]c4ccccc34)[C@@](C(=O)OC)(c3cc4c(cc3OC)N(C=O)[C@H]3[C@@](O)(C(=O)OC)[C@H](OC(C)=O)[C@]5(CC)C=CCN6CC[C@]43[C@@H]65)C2)C1
T/C (dose: 0.06 mg/kg/injection, schedule: Q01DX Z (ip), vehicle: water): 112 % of control
T/C (dose: 1.0 mg/kg/injection, schedule: Q01DX Z (ip), vehicle: water): 118 % of control

OCC1OC(n2cnc3c(=S)nc[nH]c32)C(O)C1O (stereo unspecified)
T/C (dose: 20.0 mg/kg/injection, schedule: Q01DX010 (ip), vehicle: saline): 110 % of control and 105 % of control
T/C (dose: 40.0 mg/kg/injection, schedule: Q01DX010 (ip), vehicle: saline): 110 % of control and 100 % of control
T/C [8]: 160 % of control
T/C (dose: 80.0 mg/kg/injection, schedule: Q01DX010 (ip), vehicle: saline): 115 % of control and 120 % of control
T/C [9]: 158 % of control
T/C (dose: 160.0 mg/kg/injection, schedule: Q01DX010 (ip), vehicle: saline): 120 % of control
T/C [10]: 104 % of control
T/C [11]: 94 % of control

O=CN(O)CC(=O)O
T/C [8]: 99 % of control
T/C [9]: 109 % of control
T/C [10]: 110 % of control
T/C [11]: 101 % of control

Clc1ccc(C(c2ccccc2Cl)C(Cl)Cl)cc1 (stereo unspecified)
T/C (dose: 0.8 mg/kg/injection, schedule: Q01DX Z (sc), vehicle: steriod suspending solution): 110 % of control
T/C (dose: 3.1 mg/kg/injection, schedule: Q01DX Z (sc), vehicle: steriod suspending solution): 117 % of control
T/C (dose: 6.25 mg/kg/injection, schedule: Q01DX Z (sc), vehicle: steriod suspending solution): 101 % of control
T/C [1]: 100 % of control
T/C [2]: 93 % of control and 95 % of control
T/C [3]: 93 % of control
T/C [4]: 87 % of control

CC[C@@H](c1ccc(O)cc1)[C@@H](CC)c1ccc(O)cc1
T/C [12]: 101 % of control
T/C [13]: 104 % of control
T/C [14]: 108 % of control and 118 % of control and 105 % of control
T/C [15]: 108 % of control and 112 % of control and 103 % of control
T/C (dose: 1000.0 mg/kg/injection, schedule: Q01DX Z (sc), vehicle: steriod suspending solution): 102 % of control
T/C [16]: 100 % of control

CCC(=O)O[C@H]1CC[C@H]2[C@@H]3CCC4=CC(=O)CC[C@]4(C)[C@H]3CC[C@]12C
T/C (dose: 31.25 mg/kg/injection, schedule: Q01DX Z (sc), vehicle: steriod suspending solution): 92 % of control
T/C [12]: 111 % of control
T/C [13]: 107 % of control and 116 % of control
T/C [14]: 107 % of control
T/C [15]: 95 % of control
T/C [16]: 122 % of control

Cc1c2oc3c(C)ccc(C(=O)N[C@@H]4C(=O)N[C@H](C(C)C)C(=O)N5CCC[C@H]5C(=O)N(C)CC(=O)N(C)[C@@H](C(C)C)C(=O)O[C@H]4C)c3nc-2c(C(=O)N[C@@H]2C(=O)N[C@H](C(C)C)C(=O)N3CCC[C@H]3C(=O)N(C)CC(=O)N(C)[C@@H](C(C)C)C(=O)O[C@H]2C)c(N)c1=O (I: [aThr][dV]P[Sar][NMeV] / II: [aThr][dV]P[Sar][NMeV]; ester I:1-I:C, II:1-II:C; linker I:N-II:N via Actinocin(9to1))
T/C (dose: 0.7 micrograms/kg/injection, schedule: Q01DX Z (ip), vehicle: saline): 103 % of control
T/C (dose: 1.5 micrograms/kg/injection, schedule: Q01DX Z (ip), vehicle: saline): 94 % of control
T/C (dose: 6.2 micrograms/kg/injection, schedule: Q01DX Z (ip), vehicle: saline): 110 % of control
T/C (dose: 12.5 micrograms/kg/injection, schedule: Q01DX010 (ip), vehicle: other): 155 % of control
T/C (dose: 25.0 micrograms/kg/injection, schedule: Q01DX010 (ip), vehicle: other): 190 % of control and 205 % of control
T/C (dose: 25.0 micrograms/kg/injection, schedule: Q01DX Z (ip), vehicle: saline): 119 % of control
T/C (dose: 50.0 micrograms/kg/injection, schedule: Q01DX010 (ip), vehicle: other): 180 % of control and 245 % of control
T/C (dose: 50.0 micrograms/kg/injection, schedule: Q01DX Z (ip), vehicle: saline): 104 % of control
T/C (dose: 100.0 micrograms/kg/injection, schedule: Q01DX010 (ip), vehicle: other): 105 % of control
T/C (dose: 100.0 micrograms/kg/injection, schedule: Q01DX Z (ip), vehicle: saline): 102 % of control

O=C1C(NC(=O)C2CCCCC2)=C(N2CC2)C(=O)C(NC(=O)C2CCCCC2)=C1N1CC1
T/C (dose: 4.7 mg/kg/injection, schedule: Q01DX Z (ip), vehicle: carboxymethylcellulose (CMC)): 118 % of control
T/C (dose: 9.4 mg/kg/injection, schedule: Q01DX Z (ip), vehicle: carboxymethylcellulose (CMC)): 109 % of control and 103 % of control
T/C (dose: 18.8 mg/kg/injection, schedule: Q01DX Z (ip), vehicle: carboxymethylcellulose (CMC)): 117 % of control
T/C (dose: 25.0 mg/kg/injection, schedule: Q01DX010 (ip), vehicle: saline): 90 % of control
T/C [5]: 112 % of control and 117 % of control
T/C (dose: 50.0 mg/kg/injection, schedule: Q01DX010 (ip), vehicle: saline): 90 % of control
T/C [6]: 109 % of control
T/C (dose: 100.0 mg/kg/injection, schedule: Q01DX010 (ip), vehicle: saline): 90 % of control
T/C [7]: 116 % of control
T/C (dose: 300.0 mg/kg/injection, schedule: Q01DX Z (ip), vehicle: carboxymethylcellulose (CMC)): 109 % of control
T/C (dose: 600.0 mg/kg/injection, schedule: Q01DX Z (ip), vehicle: carboxymethylcellulose (CMC)): 88 % of control

C=CC(CN1CC1)OC(C)=O (stereo unspecified)
T/C (dose: 0.24 mg/kg/injection, schedule: Q01DX Z (ip), vehicle: carboxymethylcellulose (CMC)): 108 % of control
T/C (dose: 0.47 mg/kg/injection, schedule: Q01DX Z (ip), vehicle: carboxymethylcellulose (CMC)): 116 % of control
T/C (dose: 0.94 mg/kg/injection, schedule: Q01DX Z (ip), vehicle: carboxymethylcellulose (CMC)): 103 % of control
T/C (dose: 3.75 mg/kg/injection, schedule: Q01DX Z (ip), vehicle: carboxymethylcellulose (CMC)): 194 % of control
T/C (dose: 4.0 mg/kg/injection, schedule: Q01DX010 (ip), vehicle: saline): 150 % of control
T/C (dose: 8.0 mg/kg/injection, schedule: Q01DX010 (ip), vehicle: saline): 160 % of control
T/C (dose: 16.0 mg/kg/injection, schedule: Q01DX010 (ip), vehicle: saline): 170 % of control
